PMC6151695, “Novel Selective Estrogen Receptor Ligand Conjugates Incorporating Endoxifen-Combretastatin and Cyclofenil-Combretastatin Hybrid Scaffolds: Synthesis and Biochemical Evaluation” (Molecules : A Journal of Synthetic Chemistry and Natural …, 2017)
Several values for one entry are separate records, joined by “and”; a condition that tells them apart may be missing. Identical values can stand only once. Like-named read-outs stand apart in the source and are kept apart here.

Test system: MCF-7 human breast cancer cell line
Experiment: Alamar Blue assay for antiproliferative effects
Type: cell-based
Details: for IC50: read-out: IC50 (μM), antiproliferative effects
[1] = Homo sapiens, MCF7, 72 h, MCF-7, 72 h, Alamar Blue
[2] = Homo sapiens, MCF7, read-out: growth inhibition
[3] = Homo sapiens, MCF7, MCF-7, at 1 μM, read-out: growth inhibition

| SMILES | IC50 [1] | further results |
| --- | --- | --- |
| CCC(=C(c1ccc(O)cc1)c1ccc(OCCN(C)C(=O)/C(=C/c2ccc(OC)c([N+](=O)[O-])c2)c2cc(OC)c(OC)c(OC)c2)cc1)c1ccccc1 (mixture of isomers) [Compound 3a, (E/Z)-N-(2-(4-((E)-1-(4-Hydroxyphenyl)-2-phenylbut-1-en-1-yl)phenoxy)ethyl)-3-(4-methoxy-3-nitro-phenyl)-N-methyl-2-(3,4,5-trimethoxyphenyl)acrylamide] | – | IC50 (Homo sapiens, MCF7, 72 h): > 50 µM |
| CCC(=C(c1ccc(O)cc1)c1ccc(OCCN(C)C(=O)/C(=C/c2cc(OC)c(OC)c(OC)c2)c2cc(OC)cc(OC)c2)cc1)c1ccccc1 (mixture of isomers) [Compound 3b, (E/Z)-2-(3,5-Dimethoxyphenyl)-N-(2-(4-((Z)-1-(4-hydroxyphenyl)-2-phenylbut-1-en-1-yl)phenoxy)ethyl)-N-methyl-3-(3,4,5-trimethoxyphenyl)acrylamide] | > 50 µM | – |
| CCC(=C(c1ccc(O)cc1)c1ccc(OCCN(C)C(=O)/C(=C/c2cc(OC)c(OC)c(OC)c2)c2cc(OC)c(OC)c(OC)c2)cc1)c1ccccc1 (mixture of isomers) [Compound 3c, (E/Z)-N-(2-(4-((Z)-1-(4-Hydroxyphenyl)-2-phenylbut-1-en-1-yl)phenoxy)ethyl)-N-methyl-2,3-bis(3,4,5-trimethoxyphenyl)acrylamide] | > 50 µM | – |
| CCC(=C(c1ccc(O)cc1)c1ccc(OCCN(C)C(=O)/C(=C/c2ccc(OC)c(O)c2)c2cc(OC)cc(OC)c2)cc1)c1ccccc1 (mixture of isomers) [Compound 3d, (E/Z)-2-(3,5-Dimethoxyphenyl)-3-(3-hydroxy-4-methoxyphenyl)-N-(2-(4-((Z)-1-(4-hydroxyphenyl)-2-phenylbut-1-en-1-yl)phenoxy)ethyl)-N-methylacrylamide] | > 50 µM | – |
| CCC(=C(c1ccc(O)cc1)c1ccc(OCCN(C)C(=O)/C(=C/c2ccc(O)c(O)c2)c2cc(OC)c(OC)c(OC)c2)cc1)c1ccccc1 (mixture of isomers) [Compound 3e, (E/Z)-3-(3,4-Dihydroxyphenyl)-N-(2-(4-((Z)-1-(4-hydroxyphenyl)-2-phenylbut-1-en-1-yl)phenoxy)ethyl)-N-methyl-2-(3,4,5-trimethoxyphenyl)acrylamide] | > 50 µM | – |
| CCC(=C(c1ccc(O)cc1)c1ccc(OCCN(C)C(=O)/C(=C/c2cccc(O)c2)c2cc(OC)c(OC)c(OC)c2)cc1)c1ccccc1 (mixture of isomers) [Compound 3f, (E/Z)-3-(3-Hydroxyphenyl)-N-(2-(4-((Z)-1-(4-hydroxyphenyl)-2-phenylbut-1-en-1-yl)phenoxy)ethyl)-N-methyl-2-(3,4,5-trimethoxyphenyl)acrylamide] | > 50 µM | – |
| CCC(=C(c1ccc(O)cc1)c1ccc(OCCN(C)C(=O)/C(=C/c2ccc(OC)c(OC)c2)c2cc(OC)c(OC)c(OC)c2)cc1)c1ccccc1 (mixture of isomers) [Compound 3g, (E/Z)-3-(3,4-Dimethoxyphenyl)-N-(2-(4-((Z)-1-(4-hydroxyphenyl)-2-phenylbut-1-en-1-yl)phenoxy)ethyl)-N-methyl-2-(3,4,5-trimethoxyphenyl)acrylamide] | > 50 µM | – |
| CCC(=C(c1ccc(O)cc1)c1ccc(OCCN(C)C(=O)/C(=C/c2ccc(OC)c(OC)c2OC)c2cc(OC)c(OC)c(OC)c2)cc1)c1ccccc1 (mixture of isomers) [Compound 3h, (E/Z)-N-(2-(4-((Z)-1-(4-Hydroxyphenyl)-2-phenylbut-1-en-1-yl)phenoxy)ethyl)-N-methyl-3-(2,3,4-tri-methoxyphenyl)-2-(3,4,5-trimethoxyphenyl)acrylamide] | > 50 µM | – |
| CCC(=C(c1ccc(O)cc1)c1ccc(OCCN(C)C(=O)/C(=C/c2cc(OC)c(O)c(OC)c2)c2cc(OC)c(OC)c(OC)c2)cc1)c1ccccc1 (mixture of isomers) [Compound 3j, (E/Z)-3-(4-Hydroxy-3,5-dimethoxyphenyl)-N-(2-(4-((Z)-1-(4-hydroxyphenyl)-2-phenylbut-1-en-1-yl)-phenoxy)ethyl)-N-methyl-2-(3,4,5-trimethoxyphenyl)acrylamide] | 11.8 µM | IC50 (MCF-7, 72 h, Alamar Blue): 11.8 µM |
| CCC(=C(c1ccc(O)cc1)c1ccc(OCCN(C)C(=O)/C(=C/c2ccc(C)s2)c2cc(OC)c(OC)c(OC)c2)cc1)c1ccccc1 (mixture of isomers) [Compound 3l, (E/Z)-N-(2-(4-((E)-1-(4-Hydroxyphenyl)-2-phenylbut-1-en-1-yl)phenoxy)ethyl)-N-methyl-3-(5-methyl-thiophen-2-yl)-2-(3,4,5-trimethoxyphenyl)acrylamide] | > 50 µM | – |
| CC/C(=C(\c1ccc(O)cc1)c1ccc(OCCN(C)C(=O)C=Cc2ccc(OC)c(O)c2)cc1)c1ccccc1 (mixture of isomers) [Compound 5a, (E/Z)-3-(3-Hydroxy-4-methoxyphenyl)-N-(2-(4-((Z)-1-(4-hydroxyphenyl)-2-phenylbut-1-en-1-yl)phenoxy)-ethyl)-N-methylacrylamide] | – | IC50 (MCF-7, 72 h, Alamar Blue): 51.3 µM |
| CCC(=C(c1ccc(O)cc1)c1ccc(OCCN(C)C(=O)CCc2ccc(OC)c(O)c2)cc1)c1ccccc1 (mixture of isomers) [Compound 5b, (E/Z)-3-(3-hydroxy-4-methoxyphenyl)-N-(2-(4-(1-(4-hydroxyphenyl)-2-phenylbut-1-en-1-yl)phenoxy)ethyl)-N-methylpropanamide] | – | IC50 (MCF-7, 72 h, Alamar Blue): 46.7 µM and 46.8 µM |
| CCC(=C(c1ccc(O)cc1)c1ccc(OCCN(C)C(=O)/C=C/c2cc(OC)c(OC)c(OC)c2)cc1)c1ccccc1 (mixture of isomers) [Compound 5c, (E/Z)-N-(2-(4-((Z)-1-(4-Hydroxyphenyl)-2-phenylbut-1-en-1-yl)phenoxy)ethyl)-N-methyl-3-(3,4,5-tri-methoxyphenyl)acrylamide] | > 100 µM | IC50 (MCF-7, 72 h, Alamar Blue): > 50 µM |
| CCC(=C(c1ccc(O)cc1)c1ccc(OCCN(C)C(=O)CCc2cc(OC)c(OC)c(OC)c2)cc1)c1ccccc1 (mixture of isomers) [Compound 5d, N-(2-(4-((E/Z)-1-(4-Hydroxyphenyl)-2-phenylbut-1-enyl)phenoxy)ethyl)-3-(3,4,5-trimethoxyphenyl)-N-methylpropanamide] | > 100 µM | IC50 (MCF-7, 72 h, Alamar Blue): > 50 µM |
| COc1ccc(/C(=C\c2cc(OC)c(OC)c(OC)c2)C(N)=O)cc1 [Compound 3n, (E)-2-(4-Methoxyphenyl)-3-(3,4,5-trimethoxyphenyl)acrylamide] | – | inhibition at 1 µM [2]: 20% |
| CCN(CC)C(=O)/C(=C/c1ccc(OC)c(O)c1)c1cc(OC)c(OC)c(OC)c1 [Compound 3o, (E)-N,N-diethyl-3-(3-hydroxy-4-methoxyphenyl)-2-(3,4,5-trimethoxyphenyl) acrylamide] | – | inhibition at 1 µM [2]: 16% |
| COc1ccc(/C=C(/C(N)=O)c2cc(OC)c(OC)c(OC)c2)cc1 [Compound 3p, (E)-3-(4-Methoxyphenyl)-2-(3,4,5-trimethoxyphenyl)acrylamide] | – | inhibition at 1 µM [3]: 60% |
| CCN(CC)C(=O)/C(=C/c1ccc(OC)cc1)c1cc(OC)c(OC)c(OC)c1 [Compound 3q, (E)-N,N-Diethyl-3-(4-methoxyphenyl)-2-(3,4,5-trimethoxyphenyl)acrylamide] | – | inhibition at 1 µM [3]: 25% |
| CNCCOc1ccc(C(=C2CCCC2)c2ccc(O)cc2)cc1 [Compound 11a, 4-(Cyclopentylidene(4-(2-(methylamino)ethoxy)phenyl)methyl)phenol] | 3.09 µM | – |
| CNCCOc1ccc(C(=C2CCCCC2)c2ccc(O)cc2)cc1 [Compound 11b, 4-(Cyclohexaneylidene(4-(2-(methylamino)ethoxy)phenyl)methyl)phenol] | 4.78 µM | – |
